Assay results reported in publication PMC9290910, “Neuropilin‐1 is required for endothelial cell adhesion to soluble vascular endothelial growth factor receptor 1” (The Febs Journal, 2021).
Where no end group is shown, it is not given here.

How the values were obtained:
[1] = test system: EC (HUVEC) adhesion to peptide 12; test: Cell adhesion assay, EC adhesion to peptide 12; type: cell-based, human; conditions: plates coated with 500 µg·mL^−1 peptide 12
Method: Human umbilical vein endothelial cells (HUVEC) were isolated from freshly delivered umbilical cords, as previously described, cultured in Endothelial Cell Growth Medium‐2 Kit from Clonetics (EGM‐2, CC4176, Lonza, Basel, Switzerland), and used up to passage 6. For functional assays, HUVEC were resuspended in Endothelial Basal Medium‐2 (EBM‐2, CC3156, Lonza). A pool of cells derived from four different individuals was used.
Solid support for adhesion assay was prepared by incubating immunological 96‐multiwell plates with 20 µg·mL^−1 VEGFR‐1/Fc chimera, or fibronectin solubilized in PBS. After 2 h, the coating solution was removed, and the well surface was blocked with 3% BSA in PBS for 18 h, before plating ECs in serum‐free medium at 3 × 10^4 cells per well. After incubation at 37 °C for 1 h, the wells were washed with PBS and attached cells were fixed with 3% formaldehyde and stained with 0.5% crystal violet. Attachment efficiency was determined by quantitative dye extraction and spectrophotometric measurement of the absorbance at 540 nm, using a Microplate reader 3550‐UV (Bio‐Rad). In competition experiments, peptides Flt2‐11, scrambled Flt2‐11, Flt2‐8 or Flt2‐5, at 20 µg·mL^−1, were added during the adhesion assay. Adhesion to peptide 12 was carried out by using maleic anhydride activated microplates (Reacti‐Bind, Pierce, Rockford, IL, USA) coated with 500 µg·mL^−1 of the peptide.

[2] = test system: α5β1 integrin signalling in ECs; test: Signalling activated by EC adhesion; type: cell-based; conditions: myristoylated alanine‐rich C‐kinase substrate up-regulation, Rac1 activation; data not shown
[3] = test system: EC (HUVEC) adhesion to peptide 12; conditions: cited from earlier work
From the text: (§1) To dissect whether interaction of NRP‐1 with the transmembrane or the soluble isoform of VEGFR‐1 was required for EC adhesion to sVEGFR‐1, we performed EC adhesion assays by substituting sVEGFR‐1 with a different adhesion substrate, named peptide 12.

[4] = test system: angiogenesis; conditions: cited from earlier work
From the text: as §1

[5] = test system: α5β1 integrin; design: method as in 2 sources, one per row (each row's own in cited_ref): ref 34, 36 = [34]; PMID 18184864; doi:10.1182/blood-2007-03-077537; 34 Soro S , Orecchia A , Morbidelli L , Lacal PM , Morea V , Ballmer‐Hofer K , Ruffini F , Ziche M , D'Atri S , Zambruno G et al . ( 2008 ) A proangiogenic peptide derived from vascular endothelial gr || [36]; PMID 18682321; doi:10.1016/j.ejca.2008.06.032; 36 Lacal PM , Morea V , Ruffini F , Orecchia A , Dorio AS , Failla CM , Soro S , Tentori L , Zambruno G , Graziani G et al . ( 2008 ) Inhibition of endothelial cell migration and angiogenesis by a vas ||| ref 34 = [34]; PMID 18184864; doi:10.1182/blood-2007-03-077537; 34 Soro S , Orecchia A , Morbidelli L , Lacal PM , Morea V , Ballmer‐Hofer K , Ruffini F , Ziche M , D'Atri S , Zambruno G et al . ( 2008 ) A proangiogenic peptide derived from vascular endothelial gr; conditions: cited from earlier work

For “peptide 12: seven amino acid‐long peptide that maps on the second VEGFR‐1 Ig‐like domain (residues 219–225) (NYLTHRQ; also: biotin, position not given here)”, the “EC adhesion to peptide 12 in the absence of NRP‐1” value [1] is given as “ECs adhere to peptide 12 in the absence of NRP‐1”, the “signalling pathway activation by EC adhesion to peptide 12” value [2] is given as “also activated” and the “support of EC adhesion by peptide 12” value [3] is given as “support EC adhesion”. The “pro‐angiogenic stimulus” value [4] was “pro‐angiogenic stimulus” and the “binding to α5β1 integrin” value [5] was “able to directly bind α5β1 integrin”.
